Assay results from patent publication EP0064820A1, “Substituted imidazole and imidazoline derivatives and their preparation and use” (Farmos-Yhtyma Oy, priority 1981, dated 1982).

Key:
thrombocytes from a cow = assay: antithrombotic activity in vitro: inhibition of ADP- and collagen-induced aggregation of thrombocytes, turbidimetric; format: cell-based; conditions: cow plasma; for inhibition of ADP-induced aggregation of thrombocytes: ADP added after 10 min incubation; for inhibition of collagen-induced aggregation of thrombocytes: collagen added after 10 min incubation
Method: The antithrombotic activity was investigated in vitro. The inhibiting activity of the compounds against ADP- and collagen-induced aggregation of thrombocytes was measured. In the test thrombocytes from a cow were used. To 1.2 ml of plasma containing 250000 thrombocytes/mm^3 were added 50 µl of a solution of the compound to be tested. After 10 min incubation either ADP or collagen was added. The aggregation of the thrombocytes was turbidimetrically determined at X = 605 nm.

[1] = acute toxicity in mice, i.v.; conditions: mouse, in vivo, iv
Method: Acute toxicity was determined by using female mice of NMRI-Strain with an age of about 7 months and weighing 30-40 g. The administration of the test compound was i.v.

Sprague-Dawley rats [2] = assay: anti-hypertensive test in urethane-anesthetized rats, blood pressure and pulse frequency recorded after injection; format: in vivo
Method: The anti-hypertensive properties of the imidazole derivatives of the present invention have been determined according to the following procedure. Sprague-Dawley rats of normal weight were first anesthetized with urethane. After this, the femoral artery was connected by way of a polyethylene tube with a blood pressure transducer. The test substance was then injected into the femoral vein and the blood pressure and the pulse frequency were registered with a recorder.

Sprague-Dawley rats [3] = assay: as above; format: in vivo; conditions: i.c.v. dosage compared with i.v.
[4] = dose of the maximum not stated, within the active dose range

Row | Structure (SMILES) | inhibition of ADP-induced aggregation of thrombocytes (thrombocytes from a cow) | inhibition of collagen-induced aggregation of thrombocytes (thrombocytes from a cow) | LD50 [1] [mg/kg] | also measured
1 | Cc1cccc(C)c1CCC(O)c1nccn1Cc1ccccc1 (centres unmarked) [1-Benzyl-2-[3-(2,6-dimethylphenyl)-1-hydroxypropyl]-imidazole] | effectively | effectively | 65 | 
2 | Cc1ccccc1Cc1nc(C)c(C)[nH]1 [2-(2-methylbenzyl)-4,5-dimethyl-imidazole] | effectively | effectively | 30 | 
3 | Cc1c[nH]c(CCc2cccc(C)c2C)n1 [2-[2-(2,3-dimethylphenyl)-ethyl]-4-methyl-imidazole] | effectively | effectively | 35 | maximal decrease of the blood pressure (Sprague-Dawley rats [2]; [4]): 32%
4 | Cc1cccc(CCC2=NCCN2)c1C [2-[2-(2,3-dimethylphenyl)-ethyl]-imidazoline] |  |  | 30 | maximal decrease of the blood pressure (Sprague-Dawley rats [2]; [4]): 26%
5 | Cc1ccc(C)c(CC(O)c2ncc[nH]2)c1 (centres unmarked) [2-[2-(2,5-dimethylphenyl)-1-hydroxyethyl]-imidazole] | effectively | effectively | 45 | 
6 | Cc1ccc(C)c(CCc2ncc[nH]2)c1 [2-[2-(2,5-dimethylphenyl)-ethyl]-imidazole] |  |  | 30 | maximal decrease of the blood pressure (Sprague-Dawley rats [2]; obtained with a dose of 10 mg/kg i.v.): 37%
7 | Cc1cccc(C)c1C=Cc1ncc[nH]1 [2-[2-(2,6-dimethylphenyl)-ethenyl]-imidazole] |  |  | 40 | lowers the blood pressure by (Sprague-Dawley rats [2]; dose 3 mg/kg i.v. in rats): 17 per cent; pulse frequency (Sprague-Dawley rats [2]; dose not stated): no effect
8 | Cc1c[nH]c(CCc2c(C)cccc2C)n1 [2-[2-(2,6-dimethylphenyl)-ethyl]-4-methyl-imidazole] |  |  | 25 | lowered the blood pressure by (Sprague-Dawley rats [2]; dosage 300 µg/kg i.v.): 45%
9 | Cc1cccc(C)c1CCc1ncc[nH]1 [2-[2-(2,6-dimethylphenyl)-ethyl]-imidazole] | effectively | effectively | 20 | blood pressure lowered by i.c.v. dosage with smaller amounts (than i.v.) (Sprague-Dawley rats [3]): 10 x; pulse frequency (Sprague-Dawley rats [2]; at high dosages): slight decrease; effect on blood pressure (Sprague-Dawley rats [2]; dose 300 µg/kg i.v.): lowered blood pressure of long duration; decrease of the blood pressure (Sprague-Dawley rats [2]; dose 3 mg/kg i.v., rats): 30%; effect on blood pressure (Sprague-Dawley rats [2]; dose 30 and 100 µg/kg i.v. in rats): lowered the blood pressure for a shorter time; effect on blood pressure (Sprague-Dawley rats [2]; doses of 30 mg/kg i.v.): did not elevate the blood pressure
10 | Cc1cccc(C)c1CCC1=NCCN1 [2-[2-(2,6-dimethylphenyl)-ethyl]-imidazoline] |  |  | 25 | lowers the blood pressure by (Sprague-Dawley rats [2]; dose 1-3 mg/kg in rats): 20%
11 | Cc1cccc(C)c1CC(O)c1ncc[nH]1 (stereo not drawn) [2-[2-(2,6-dimethylphenyl)-l-hydroxyethyl]-imidazole] |  |  | 60 | effect on blood pressure (Sprague-Dawley rats [2]; dose 10 mg/kg): lowers the blood pressure for a longer period; effect on blood pressure (Sprague-Dawley rats [2]; dose 1 and 3 mg/kg i.v.): lowering of the blood pressure of short duration; pulse frequency (Sprague-Dawley rats [2]; dose not stated): very slightly influenced
12 | Cc1ccc(CC(O)c2ncc[nH]2)cc1C (centres unmarked) [2-[2-(3,4-dimethylphenyl)-1-hydroxyethyl]-imidazole] |  |  | 50 | maximal decrease of the blood pressure (Sprague-Dawley rats [2]; [4]): 17%
13 | Cc1ccc(CCc2ncc[nH]2)cc1C [2-[2-(3,4-dimethylphenyl)-ethyl]-imidazole] |  |  | 40 | lowered the blood pressure by (Sprague-Dawley rats [2]; dose 10 mg/kg): 20%
